Experiments:
[1] = Amount of fragrance ingredients retained on paper blotter after evaporation (ethanol extraction, GC-MS); assay type: physicochemical
Method in brief: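 100 µL of fragrance formulation applied to paper blotters kept at 32°C open to air; at each time three blotters extracted 1 h in ethanol with methyl decanoate internal standard and analysed by GC-MS (HP-5MS, 50–280°C). Amounts averaged over triplicates and expressed as percent of time-zero level.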

[2] = Headspace concentration of fragrance ingredients over blotter (thermal desorption GC-MS); assay type: physicochemical;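 as to headspace concentration in composition C1 compared to control EdT1: C1 is an invention composition and EdT1 a conventional EdT of fragrance TAK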
Method in brief: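 Fragrance (100µL) applied to a 10 cm perfumers' blotter held on a 32°C hot plate, equilibrated 5 min; headspace drawn through Tenax TA tubes at 17mL/min until 280mL collected, repeated at later sampling times. Tubes thermally desorbed splitless onto HP-5MS column, GC-MS detection, mass range 35 to 350.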

amount of fragrance ingredient retained on blotter (percentage of the initial amount) ([1]; Table 3, fragrance TAK in C1, 15 min, 32°C): 80%
amount of fragrance ingredient retained on blotter (percentage of the initial amount) ([1]; Table 3, fragrance TAK in C1, 60 min, 32°C): 62%
amount of fragrance ingredient retained on blotter (percentage of the initial amount) ([1]; Table 3, fragrance TAK in C1, 120 min, 32°C): 39%
amount of fragrance ingredient retained on blotter (percentage of the initial amount) ([1]; Table 3, fragrance TAK in C1, 240 min, 32°C): 18%
amount of fragrance ingredient retained on blotter (percentage of the initial amount) ([1]; Table 3, fragrance TAK in C1, 480 min, 32°C): 2%
amount of fragrance ingredient retained on blotter (percentage of the initial amount) ([1]; Table 3, fragrance TAK in EdT1, 15 min, 32°C): 70%
amount of fragrance ingredient retained on blotter (percentage of the initial amount) ([1]; Table 3, fragrance TAK in EdT1, 60 min, 32°C): 29%
amount of fragrance ingredient retained on blotter (percentage of the initial amount) ([1]; Table 3, fragrance TAK in EdT1, 120 min, 32°C): 2%
amount of fragrance ingredient retained on blotter (percentage of the initial amount) ([1]; Table 3, fragrance TAK in EdT1, 240 min, 32°C): <1%
amount of fragrance ingredient retained on blotter (percentage of the initial amount) ([1]; Table 3, fragrance TAK in EdT1, 480 min, 32°C): 1%
amount of fragrance ingredient retained on blotter (percentage of the initial amount) ([1]; Table 3, fragrance TAK in EdT1 or C1, T0, set at 100% (normalisation)): 100%
amount of fragrance ingredient retained on blotter (percentage of the initial amount) ([1]; Table 4, fragrance TAK in C2, 15 min, 32°C): 92%
amount of fragrance ingredient retained on blotter (percentage of the initial amount) ([1]; Table 4, fragrance TAK in C2, 480 min, 32°C): 3%
amount of fragrance ingredient retained on blotter (percentage of the initial amount) ([1]; Table 4, fragrance TAK in EdT1, 15 min, 32°C): 74%
amount of fragrance ingredient retained on blotter (percentage of the initial amount) ([1]; Table 4, fragrance TAK in EdT1, 480 min, 32°C): <1%
amount of fragrance ingredient retained on blotter (percentage of the initial amount) ([1]; Table 4, fragrance TAK in EdT1 or C2, T0, set at 100% (normalisation)): 100%
amount of fragrance ingredient retained on blotter (percentage of the initial amount) ([1]; Table 5, fragrance TAK in C3, 15 min, 32°C): 83%
amount of fragrance ingredient retained on blotter (percentage of the initial amount) ([1]; Table 5, fragrance TAK in C3, 60 min, 32°C): 64%
amount of fragrance ingredient retained on blotter (percentage of the initial amount) ([1]; Table 5, fragrance TAK in C3, 120 min, 32°C): 44%
amount of fragrance ingredient retained on blotter (percentage of the initial amount) ([1]; Table 5, fragrance TAK in C3, 240 min, 32°C): 27%
amount of fragrance ingredient retained on blotter (percentage of the initial amount) ([1]; Table 5, fragrance TAK in C3, 480 min, 32°C): 3%
amount of fragrance ingredient retained on blotter (percentage of the initial amount) ([1]; Table 5, fragrance TAK in C3, 1440 min, 32°C): <1%
amount of fragrance ingredient retained on blotter (percentage of the initial amount) ([1]; Table 5, fragrance TAK in EdT1, 15 min, 32°C): 70%
amount of fragrance ingredient retained on blotter (percentage of the initial amount) ([1]; Table 5, fragrance TAK in EdT1, 60 min, 32°C): 27%
amount of fragrance ingredient retained on blotter (percentage of the initial amount) ([1]; Table 5, fragrance TAK in EdT1, 120 min, 32°C): 2%
amount of fragrance ingredient retained on blotter (percentage of the initial amount) ([1]; Table 5, fragrance TAK in EdT1, 240 min, 32°C): <1%
amount of fragrance ingredient retained on blotter (percentage of the initial amount) ([1]; Table 5, fragrance TAK in EdT1, 480 min, 32°C): 1%
amount of fragrance ingredient retained on blotter (percentage of the initial amount) ([1]; Table 5, fragrance TAK in EdT1, 1440 min, 32°C): <1%
amount of fragrance ingredient retained on blotter (percentage of the initial amount) ([1]; Table 5, fragrance TAK in EdT1 or C3, T0, set at 100% (normalisation)): 100%
amount of fragrance ingredient retained on blotter (percentage of the initial amount) ([1]; Table 6, fragrance TAK in C4, 15 min, 32°C): 83%
amount of fragrance ingredient retained on blotter (percentage of the initial amount) ([1]; Table 6, fragrance TAK in C4, 60 min, 32°C): 64%
amount of fragrance ingredient retained on blotter (percentage of the initial amount) ([1]; Table 6, fragrance TAK in C4, 120 min, 32°C): 36%
amount of fragrance ingredient retained on blotter (percentage of the initial amount) ([1]; Table 6, fragrance TAK in C4, 240 min, 32°C): 18%
amount of fragrance ingredient retained on blotter (percentage of the initial amount) ([1]; Table 6, fragrance TAK in C4, 480 min, 32°C): 3%
amount of fragrance ingredient retained on blotter (percentage of the initial amount) ([1]; Table 6, fragrance TAK in EdT1, 15 min, 32°C): 70%
amount of fragrance ingredient retained on blotter (percentage of the initial amount) ([1]; Table 6, fragrance TAK in EdT1, 60 min, 32°C): 29%
amount of fragrance ingredient retained on blotter (percentage of the initial amount) ([1]; Table 6, fragrance TAK in EdT1, 120 min, 32°C): 2%
amount of fragrance ingredient retained on blotter (percentage of the initial amount) ([1]; Table 6, fragrance TAK in EdT1, 240 min, 32°C): <1%
amount of fragrance ingredient retained on blotter (percentage of the initial amount) ([1]; Table 6, fragrance TAK in EdT1, 480 min, 32°C): 1%
amount of fragrance ingredient retained on blotter (percentage of the initial amount) ([1]; Table 6, fragrance TAK in EdT1 or C4, T0, set at 100% (normalisation)): 100%
amount of fragrance ingredient retained on blotter (percentage of the initial amount) ([1]; Table 9, fragrance COM1 in C5, T0 + 15 min): 75.1%
amount of fragrance ingredient retained on blotter (percentage of the initial amount) ([1]; Table 9, fragrance COM1 in C5, T0 + 480 min): 1.9%
amount of fragrance ingredient retained on blotter (percentage of the initial amount) ([1]; Table 9, fragrance COM1 in C5, T0 +1440 min): <1%
amount of fragrance ingredient retained on blotter (percentage of the initial amount) ([1]; Table 9, fragrance COM1 in C6, T0 + 15 min): 66.4%
amount of fragrance ingredient retained on blotter (percentage of the initial amount) ([1]; Table 9, fragrance COM1 in C6, T0 + 480 min): 1.7%
amount of fragrance ingredient retained on blotter (percentage of the initial amount) ([1]; Table 9, fragrance COM1 in C6, T0 +1440 min): 1.0%
amount of fragrance ingredient retained on blotter (percentage of the initial amount) ([1]; Table 9, fragrance COM1 in EdT2, C5 or C6, T0, set at 100% (normalisation)): 100%
amount of fragrance ingredient retained on blotter (percentage of the initial amount) ([1]; Table 9, fragrance COM1 in EdT2, T0 + 15 min): 61.7%
amount of fragrance ingredient retained on blotter (percentage of the initial amount) ([1]; Table 9, fragrance COM1 in EdT2, T0 + 480 min): 3.7%
amount of fragrance ingredient retained on blotter (percentage of the initial amount) ([1]; Table 9, fragrance COM1 in EdT2, T0 +1440 min): 2.90%
headspace concentration in composition C8 compared to control EdT4 ([2]; COM1 dosed at 20 wt%, up to 8 hours, Figures 8 to 10): significantly higher
headspace concentration in composition C1 compared to control EdT1 ([2]; fragrance TAK, T0 + 4h, Figure 3): significantly greater
headspace concentration in composition C14 compared to control EdT1 ([2]; fragrance TAK, T0+4h and T0+8h, Figures 17 and 18): significantly greater
headspace concentration in composition C15 compared to control EdT1 ([2]; fragrance TAK, T0+4h and T0+8h, Figures 20 and 21, difference significant for linalool, linalyl acetate and Verdox™): greater
headspace concentration in composition C1 compared to control EdT1 ([2]; fragrance TAK, T0 + 8h, Figure 4): much greater
headspace concentration in composition C1 compared to control EdT1 ([2]; fragrance TAK, after 1 hour, Figure 2): greater
Compound: CC(=O)OC1CCCCC1C(C)(C)C (centres unmarked) [Verdox™, (2-tert-butylcyclohexyl) acetate]
